{
  "source": "patent US12357698B1",
  "about": "“FUS proteolysis-targeting chimera, preparation method and applications thereof” (SHANDONG NORMAL UNIVERSITY, priority 2024, dated 2025)",
  "assay_type_in_all_cases": "cell-based",
  "key": {"FUS-R521C": {"target": "T1, FUS-R521C (Homo sapiens, UniProt P35637, R521C)", "T1 construct": "expressed in transfected cells; host or cells: 293T cells", "T1 sequence (P35637 1-526 R521C)": "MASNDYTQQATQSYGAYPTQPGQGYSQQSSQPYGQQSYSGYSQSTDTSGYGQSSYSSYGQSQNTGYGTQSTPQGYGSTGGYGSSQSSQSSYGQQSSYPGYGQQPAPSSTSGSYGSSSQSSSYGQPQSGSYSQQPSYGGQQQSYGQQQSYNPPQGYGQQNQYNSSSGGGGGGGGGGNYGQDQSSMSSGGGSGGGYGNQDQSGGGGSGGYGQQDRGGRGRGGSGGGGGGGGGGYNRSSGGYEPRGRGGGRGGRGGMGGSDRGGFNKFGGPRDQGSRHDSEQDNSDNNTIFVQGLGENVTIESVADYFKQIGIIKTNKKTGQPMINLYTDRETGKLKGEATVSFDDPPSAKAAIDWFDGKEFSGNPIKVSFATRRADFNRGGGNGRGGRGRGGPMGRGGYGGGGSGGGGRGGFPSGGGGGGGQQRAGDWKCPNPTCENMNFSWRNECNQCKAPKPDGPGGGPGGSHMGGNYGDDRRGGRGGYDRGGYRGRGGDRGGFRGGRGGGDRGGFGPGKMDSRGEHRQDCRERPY", "assay": "Degradation of mutant FUS-R521C in 293T cells, Western blot", "conditions": "1000 nM, 24 hours", "procedure": "(§1) dFUS-C1 solutions were prepared at concentration gradients of 37.5 nM, 62.5 nM, 125 nM, 250 nM, 500 nM, 1000 nM, and 2000 nM, and were transfected into 293T cells expressing different mutant FUS proteins using liposomes. After 24 hours, the cells were lysed, and changes in FUS protein were detected by Western blot. FIG. 11A to FIG. 11E show the degradation of different mutant FUS by dFUS-C1 in 293T cells."}, "FUS-R521H": {"target": "T2, FUS-R521H (Homo sapiens, UniProt P35637, R521H)", "T2 construct": "expressed in transfected cells; host or cells: 293T cells", "T2 sequence (P35637 1-526 R521H)": "T1 sequence (P35637 1-526 R521C) with C521H", "assay": "Degradation of mutant FUS-R521H in 293T cells, Western blot", "conditions": "1000 nM, 24 hours", "procedure": "as §1"}, "FUS-R521G": {"target": "T3, FUS-R521G (Homo sapiens, UniProt P35637, R521G)", "T3 construct": "expressed in transfected cells; host or cells: 293T cells", "T3 sequence (P35637 1-526 R521G)": "T1 sequence (P35637 1-526 R521C) with C521G", "assay": "Degradation of mutant FUS-R521G in 293T cells, Western blot", "conditions": "1000 nM, 24 hours", "procedure": "as §1"}, "FUS protein [1]": {"system": "FUS protein", "assay": "Proteomics before and after dFUS-C1 treatment"}, "FUS protein [2]": {"target": "T4, FUS protein (Homo sapiens, UniProt P35637)", "T4 construct": "endogenous in cells; host or cells: SH-SY5Y cells", "T4 sequence (P35637 1-526)": "T1 sequence (P35637 1-526 R521C) with C521R", "assay": "FUS degradation in SH-SY5Y cells, Western blot", "conditions": "concentration gradient 9.4-125 nM, liposome transfection, 24 hours", "procedure": "(§2) dFUS-C1 solutions were prepared at concentration gradients of 9.4 nM, 18.7 nM, 37.5 nM, 62.5 nM, and 125 nM, and were transfected into PC12 or SH-SY5Y cells using liposomes. After 24 hours, the cells were lysed, and changes in FUS protein were detected by Western blot.\nThen 15% non-denaturing polyacrylamide gel electrophoresis was performed at 120 V for about 70 min, followed by staining with SYBR Gold nucleic acid gel stain, and finally imaged using a Bio-RAD instrument. […] For testing the FUS protein degradation performance of dFUS-PS, dFUS-PS solutions were prepared at concentration gradients of 9.4 nM, 18.7 nM, 37.5 nM, 62.5 nM, and 125 nM, and were transfected into SH-SY5Y cells using liposomes. After 24 hours, the cells were lysed, and changes in FUS protein were detected by Western blot."}, "FUS protein [3]": {"target": "T5, FUS protein (Rattus norvegicus, UniProt Q5PQK2)", "T5 construct": "endogenous in cells; host or cells: PC12 cells", "T5 sequence (Q5PQK2 1-515)": "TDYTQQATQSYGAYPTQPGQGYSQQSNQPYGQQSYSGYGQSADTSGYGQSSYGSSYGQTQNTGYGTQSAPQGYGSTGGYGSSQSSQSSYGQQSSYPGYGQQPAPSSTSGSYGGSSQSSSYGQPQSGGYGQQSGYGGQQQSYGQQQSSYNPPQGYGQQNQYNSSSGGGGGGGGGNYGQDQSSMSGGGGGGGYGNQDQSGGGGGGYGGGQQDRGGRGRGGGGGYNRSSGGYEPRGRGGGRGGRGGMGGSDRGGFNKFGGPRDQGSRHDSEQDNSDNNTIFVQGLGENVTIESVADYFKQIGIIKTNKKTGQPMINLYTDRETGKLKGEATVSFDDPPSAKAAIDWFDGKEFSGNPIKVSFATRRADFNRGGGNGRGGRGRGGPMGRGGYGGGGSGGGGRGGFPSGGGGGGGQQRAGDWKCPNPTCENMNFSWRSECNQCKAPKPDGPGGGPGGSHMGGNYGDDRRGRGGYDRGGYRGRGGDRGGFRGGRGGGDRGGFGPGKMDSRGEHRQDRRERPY", "assay": "FUS degradation in PC12 cells, Western blot", "conditions": "liposome transfection, 24 hours", "procedure": "The 10 PROTACs were transfected into PC12 cells at a final concentration of 125 nM using liposomes. After 24 hours, the cells were lysed, and changes in FUS protein were detected by Western blot.\nas §2"}, "FUS-WT": {"target": "T6, FUS-WT (Homo sapiens, UniProt P35637)", "T6 construct": "expressed in transfected cells; host or cells: 293T cells", "T6 sequence (P35637 1-526)": "T1 sequence (P35637 1-526 R521C) with C521R", "assay": "Degradation of FUS-WT in 293T cells, Western blot", "conditions": "1000 nM, 24 hours"}, "SH-SY5Y cells": {"system": "SH-SY5Y cells", "assay": "Neurotoxicity caused by FUS overexpression (ROS, LDH release, CCK8)", "conditions": "SH-SY5Y cells transfected with FUS plasmids, CCK8 cell viability", "procedure": "In this example, ROS detection kit, LDH release detection kit, and CCK8 reagent were used for cytotoxicity detection. Specifically: 5×10^3 SH-SY5Y cells were added to 96-well plates and cultured at 37° C., 5% CO2 cell incubator for 12 hours; FUS plasmids were transfected into the wells, then the cells were cultured at 37° C., 5% CO2 cell incubator for 24 hours, indicated reagents were added to each well, and corresponding indicators were detected according to the kit instructions."}, "FUS-P525L": {"target": "T7, FUS-P525L (Homo sapiens, UniProt P35637, P525L)", "T7 construct": "expressed in transfected cells; host or cells: 293T cells", "T7 sequence (P35637 1-526 P525L)": "T1 sequence (P35637 1-526 R521C) with C521R, P525L", "assay": "Degradation of mutant FUS-P525L in 293T cells, Western blot", "conditions": "1000 nM, 24 hours", "procedure": "as §1"}},
  "note": "Where a chain is given by its changes, count along the chain named.",
  "data": [
    {"substance": "dFUS-C1: PROTAC obtained by coupling FUS-1 (N3-FUS-RNA #1, SEQ ID NO: 1) with CRBN ligand (GUUUGGUGAUGUUUGGUGAU; RNA, backbone not given here; 5' azide via C6 amino linker, click-coupled to CRBN ligand (PROTAC))", "values": [
      {"measurement": "degradation of FUS-R521C", "setting": "FUS-R521C", "result": "could efficiently degrade"},
      {"measurement": "degradation of FUS-R521H", "setting": "FUS-R521H", "result": "could efficiently degrade"},
      {"measurement": "degradation of FUS-R521G", "setting": "FUS-R521G", "result": "could efficiently degrade"},
      {"measurement": "specificity of degradation (proteomics)", "setting": "FUS protein [1]", "result": "specific degradation effects on FUS protein"},
      {"measurement": "degradation of FUS protein", "setting": "FUS protein [2]", "result": "could efficiently degrade FUS protein"},
      {"measurement": "degradation of FUS protein", "setting": "FUS protein [3]; 125 nM", "result": "stably and efficiently degrade FUS protein"},
      {"measurement": "degradation of FUS protein", "setting": "FUS protein [3]; concentration gradient 9.4-125 nM", "result": "could efficiently degrade FUS protein"},
      {"measurement": "degradation of FUS-WT", "setting": "FUS-WT", "result": "could efficiently degrade"},
      {"measurement": "neurotoxicity caused by FUS overexpression", "setting": "SH-SY5Y cells", "result": "significantly inhibited the neurotoxicity caused by FUS overexpression"},
      {"measurement": "degradation of FUS-P525L", "setting": "FUS-P525L", "result": "could efficiently degrade"}
    ]}
  ]
}
